Consider six compounds from the NIST ThermoML archive (doi:10.1021/je500380x).

± gives the expanded uncertainty stated by the source.

The term viscosity denotes the internal friction of a fluid under shear. What is called mass density is mass per unit of volume.

For data set [1] the following is noted: 298.15 K, 101.33 kPa, Liquid; for viscosity: Falling or rolling sphere viscometry; for mass density: Vibrating tube method.
Data set [2] in a line: mn = molality of the nth substance listed, in mol/kg. The note with it: 100 kPa, Liquid, m2 = 0; for viscosity: Falling or rolling sphere viscometry; for mass density: Vibrating tube method.

On to `CCO` [ethanol], for which, in data set [1], the viscosity is 1.083 ± 0.013 mPa·s and the mass density was 785.339 ± 0.13 kg/m3.
Consider `CCO` [ethanol] + CCC(=O)OCCN1CCNCC1, for which the viscosity in data set [2] (293.15 K) is given as 1.189 ± 0.015 mPa·s; in data set [2] (298.15 K), 1.083 ± 0.013 mPa·s; in data set [2] (303.15 K) it was 0.989 ± 0.012 mPa·s; in data set [2] (308.15 K), 0.905 ± 0.011 mPa·s; in data set [2] (313.15 K), 0.831 ± 0.01 mPa·s; in data set [2] (318.15 K), 0.765 ± 0.009 mPa·s. In addition, the viscosity in data set [2] (323.15 K) was found to be 0.706 ± 0.009 mPa·s. Further, the mass density in data set [2] (293.15 K) was found to be 789.64 ± 0.15 kg/m3; in data set [2] (298.15 K), 785.34 ± 0.15 kg/m3; in data set [2] (303.15 K) it was 781.03 ± 0.15 kg/m3; in data set [2] (308.15 K), 776.68 ± 0.16 kg/m3; in data set [2] (313.15 K), 772.29 ± 0.16 kg/m3; in data set [2] (318.15 K), 767.86 ± 0.16 kg/m3. For the same compound, the mass density in data set [2] (323.15 K) is recorded as 763.38 ± 0.16 kg/m3.
For `CO` [methanol], in data set [1], the viscosity is on record as 0.559 ± 0.011 mPa·s and the mass density is 786.671 ± 0.13 kg/m3.
Turning to `CO` [methanol] + CCC(=O)OCCN1CCNCC1, the viscosity in data set [2] (293.15 K) was determined as 0.595 ± 0.007 mPa·s; in data set [2] (298.15 K), 0.559 ± 0.007 mPa·s; in data set [2] (303.15 K) it was 0.527 ± 0.007 mPa·s; in data set [2] (308.15 K) it was 0.498 ± 0.006 mPa·s; in data set [2] (313.15 K), 0.471 ± 0.006 mPa·s; in data set [2] (318.15 K), 0.448 ± 0.006 mPa·s. Further, the viscosity in data set [2] (323.15 K) turned out to be 0.428 ± 0.005 mPa·s. In addition, the mass density is 791.38 ± 0.15 kg/m3 in data set [2] (293.15 K); 786.67 ± 0.15 kg/m3 in data set [2] (298.15 K); 781.95 ± 0.15 kg/m3 in data set [2] (303.15 K); 777.2 ± 0.16 kg/m3 in data set [2] (308.15 K); 772.43 ± 0.16 kg/m3 in data set [2] (313.15 K); 767.62 ± 0.16 kg/m3 in data set [2] (318.15 K). For the same compound, the mass density in data set [2] (323.15 K) stood at 762.77 ± 0.16 kg/m3.
`O` [water]: in data set [1], the viscosity is reported as 0.887 ± 0.012 mPa·s.
`O` [water] + CCC(=O)OCCN1CCNCC1: the viscosity in data set [2] (293.15 K) amounted to 0.994 ± 0.012 mPa·s; in data set [2] (298.15 K) it was 0.887 ± 0.011 mPa·s; in data set [2] (303.15 K) it was 0.799 ± 0.01 mPa·s; in data set [2] (308.15 K), 0.726 ± 0.009 mPa·s; in data set [2] (313.15 K), 0.665 ± 0.008 mPa·s; in data set [2] (318.15 K) it was 0.614 ± 0.008 mPa·s. Further, the viscosity in data set [2] (323.15 K) came to 0.567 ± 0.007 mPa·s. Besides, the mass density in data set [2] (308.15 K) was determined as 994.07 ± 0.11 kg/m3.
